Measurements reported in article PMC5218480 (PLoS ONE, 2017).

System: MV-4-11 cells
Test: Gene expression microarray analysis (Affymetrix PrimeView) and GSEA
Type: cell-based, human
Parameters: RFU PODN (11730768_x_at) / Fold change /veh PODN (11730768_x_at) / RFU LINC00158 (11744669_a_at) / Fold change /veh LINC00158 (11744669_a_at) / RFU DUSP10 (11751237_a_at) / Fold change /veh DUSP10 (11751237_a_at) / RFU ID3 (11757404_x_at) / Fold change /veh ID3 (11757404_x_at) / RFU PLEKHG5 (11737974_s_at) / Fold change /veh PLEKHG5 (11737974_s_at) / RFU LRRC4B (11730491_at) / Fold change /veh LRRC4B (11730491_at) / RFU GIMAP4 (11747438_a_at) / Fold change /veh GIMAP4 (11747438_a_at) / RFU KRT8 (11758183_x_at) / Fold change /veh KRT8 (11758183_x_at) / RFU CNN1 (11734310_a_at) / Fold change /veh CNN1 (11734310_a_at) / RFU VPS37D (11726825_at) / Fold change /veh VPS37D (11726825_at) / RFU C10orf10 (11716522_x_at) / Fold change /veh C10orf10 (11716522_x_at) / RFU KIR2DL2 /// KIR2DL4 /// KIR2DL5A /// KIR2DL5B /// KIR2DS1 /// KIR2DS2 /// KIR2DS3 /// KIR2DS4 /// KIR3DL3 /// KIR3DL3 /// KIR3DS1 (11738374_at) / Fold change /veh KIR2DL2 /// KIR2DL4 /// KIR2DL5A /// KIR2DL5B /// KIR2DS1 /// KIR2DS2 /// KIR2DS3 /// KIR2DS4 /// KIR3DL3 /// KIR3DL3 /// KIR3DS1 (11738374_at) / RFU C1QL1 (11718748_at) / Fold change /veh C1QL1 (11718748_at) / RFU TMPRSS4 (11747572_a_at) / Fold change /veh TMPRSS4 (11747572_a_at) / RFU HAMP (11756126_x_at) / Fold change /veh HAMP (11756126_x_at) / RFU RNFT2 (11725882_a_at) / Fold change /veh RNFT2 (11725882_a_at) / RFU NR4A2 (11747474_a_at) / Fold change /veh NR4A2 (11747474_a_at) / RFU ABCC12 (11746883_a_at) / Fold change /veh ABCC12 (11746883_a_at) / RFU TMEM136 (11760407_x_at) / Fold change /veh TMEM136 (11760407_x_at) / RFU CLDN22 /// WWC2 (11732394_at) / Fold change /veh CLDN22 /// WWC2 (11732394_at) / RFU HLA-DPB1 (11760878_x_at) / Fold change /veh HLA-DPB1 (11760878_x_at) / RFU SPINT1 (11716480_a_at) / Fold change /veh SPINT1 (11716480_a_at) / RFU GAP43 (11754022_s_at) / Fold change /veh GAP43 (11754022_s_at) / RFU A4GNT (11735810_at) / Fold change /veh A4GNT (11735810_at) / RFU PRB3 (11715151_x_at) / Fold change /veh PRB3 (11715151_x_at) / RFU TUBB4B (11761932_at) / Fold change /veh TUBB4B (11761932_at) / RFU CAPN14 (11732068_a_at) / Fold change /veh CAPN14 (11732068_a_at) / RFU TMCC2 (11721928_a_at) / Fold change /veh TMCC2 (11721928_a_at) / RFU IRGQ (11745062_a_at) / Fold change /veh IRGQ (11745062_a_at) / RFU FAM174B (11720279_a_at) / Fold change /veh FAM174B (11720279_a_at) / RFU TMPRSS4 (11748680_a_at) / Fold change /veh TMPRSS4 (11748680_a_at) / RFU FAM212B (11763350_a_at) / Fold change /veh FAM212B (11763350_a_at) / RFU PLEKHG5 (11743358_a_at) / Fold change /veh PLEKHG5 (11743358_a_at) / RFU ZSCAN30 (11745921_a_at) / Fold change /veh ZSCAN30 (11745921_a_at) / RFU CMKLR1 (11741424_a_at) / Fold change /veh CMKLR1 (11741424_a_at) / RFU LOC101060620 /// MAPK8IP1 (11723275_at) / Fold change /veh LOC101060620 /// MAPK8IP1 (11723275_at) / RFU SPTSSB (11747773_x_at) / Fold change /veh SPTSSB (11747773_x_at) / RFU PRSS12 (11739890_at) / Fold change /veh PRSS12 (11739890_at) / RFU BIN1 (11741810_x_at) / Fold change /veh BIN1 (11741810_x_at) / RFU WNT11 (11732464_a_at) / Fold change /veh WNT11 (11732464_a_at) / RFU C10orf10 (11716521_a_at) / Fold change /veh C10orf10 (11716521_a_at) / RFU C5orf56 (11738089_at) / Fold change /veh C5orf56 (11738089_at) / RFU CYB561 (11721691_x_at) / Fold change /veh CYB561 (11721691_x_at) / RFU ANKRD19P (11752326_a_at) / Fold change /veh ANKRD19P (11752326_a_at) / RFU OR2T12 /// OR2T33 /// OR2T8 (11738714_s_at) / Fold change /veh OR2T12 /// OR2T33 /// OR2T8 (11738714_s_at) / RFU VCAN (11748164_a_at) / Fold change /veh VCAN (11748164_a_at) / RFU JSRP1 (11732532_at) / Fold change /veh JSRP1 (11732532_at) / RFU KRTAP10-11 (11738290_x_at) / Fold change /veh KRTAP10-11 (11738290_x_at) / RFU MYO3A (11730013_a_at) / Fold change /veh MYO3A (11730013_a_at) / RFU EBF3 (11725865_a_at) / Fold change /veh EBF3 (11725865_a_at) / RFU CAMK2N1 (11719241_x_at) / Fold change /veh CAMK2N1 (11719241_x_at) / RFU C5orf56 (11738088_a_at) / Fold change /veh C5orf56 (11738088_a_at) / RFU OLFML3 (11715873_a_at) / Fold change /veh OLFML3 (11715873_a_at) / RFU LOC100653217 /// NTM (11731650_a_at) / Fold change /veh LOC100653217 /// NTM (11731650_a_at) / RFU MAPK11 (11762145_a_at) / Fold change /veh MAPK11 (11762145_a_at) / RFU FIZ1 (11724087_x_at) / Fold change /veh FIZ1 (11724087_x_at) / RFU OASL (11726364_x_at) / Fold change /veh OASL (11726364_x_at) / RFU SOX15 (11748057_x_at) / Fold change /veh SOX15 (11748057_x_at) / RFU CD79A (11719716_a_at) / Fold change /veh CD79A (11719716_a_at) / RFU HIST1H1D (11736915_at) / Fold change /veh HIST1H1D (11736915_at) / RFU CASKIN2 (11723855_a_at) / Fold change /veh CASKIN2 (11723855_a_at) / RFU LOC730098 (11760151_x_at) / Fold change /veh LOC730098 (11760151_x_at) / RFU OR4N2 (11742367_at) / Fold change /veh OR4N2 (11742367_at) / RFU PRRT2 (11749266_a_at) / Fold change /veh PRRT2 (11749266_a_at) / RFU SNX32 (11753110_a_at) / Fold change /veh SNX32 (11753110_a_at) / RFU CDHR5 (11726645_a_at) / Fold change /veh CDHR5 (11726645_a_at) / RFU RCAN1 (11760418_a_at) / Fold change /veh RCAN1 (11760418_a_at) / RFU FAM167A (11723789_a_at) / Fold change /veh FAM167A (11723789_a_at) / RFU FAM26E (11764081_at) / Fold change /veh FAM26E (11764081_at) / RFU ISYNA1 (11749810_s_at) / Fold change /veh ISYNA1 (11749810_s_at) / RFU ACY1 (11761880_at) / Fold change /veh ACY1 (11761880_at) / RFU 11764098_at / Fold change /veh 11764098_at / RFU SAMD14 (11745864_x_at) / Fold change /veh SAMD14 (11745864_x_at) / RFU NPB (11741838_a_at) / Fold change /veh NPB (11741838_a_at) / RFU TMPRSS6 (11731388_a_at) / Fold change /veh TMPRSS6 (11731388_a_at) / RFU KRTAP10-2 (11738614_at) / Fold change /veh KRTAP10-2 (11738614_at) / RFU ARHGAP8 /// PRR5-ARHGAP8 (11727945_x_at) / Fold change /veh ARHGAP8 /// PRR5-ARHGAP8 (11727945_x_at) / RFU KRTAP5-7 /// NADSYN1 (11734609_at) / Fold change /veh KRTAP5-7 /// NADSYN1 (11734609_at) / RFU RASL12 (11751679_a_at) / Fold change /veh RASL12 (11751679_a_at) / RFU CDKN2B (11736163_a_at) / Fold change /veh CDKN2B (11736163_a_at) / RFU PRF1 (11729649_at) / Fold change /veh PRF1 (11729649_at) / RFU, ZNF638 /// ZNF638-IT1 / Fold change vs veh, ZNF638 /// ZNF638-IT1 / RFU, PANK3 / Fold change vs veh, PANK3 / RFU, SH3YL1 / Fold change vs veh, SH3YL1 / RFU, ZEB2 / Fold change vs veh, ZEB2 / RFU, NRIP1 / Fold change vs veh, NRIP1 / RFU, PTTG1IP / Fold change vs veh, PTTG1IP / RFU, CAPN2 / Fold change vs veh, CAPN2 / RFU, MED14 / Fold change vs veh, MED14 / RFU, SNORA58 / Fold change vs veh, SNORA58 / RFU, C1orf63 / Fold change vs veh, C1orf63 / RFU, LRRFIP1 / Fold change vs veh, LRRFIP1 / RFU, NDUFAF7 / Fold change vs veh, NDUFAF7 / RFU, SLC12A2 / Fold change vs veh, SLC12A2 / RFU, IBTK / Fold change vs veh, IBTK / RFU, ESF1 / Fold change vs veh, ESF1 / Fold change vs veh, TMEM50B / RFU, TAOK1 / Fold change vs veh, TAOK1 / RFU, ACBD3 / Fold change vs veh, ACBD3 / RFU, TMA16 / Fold change vs veh, TMA16 / RFU, RWDD3 / Fold change vs veh, RWDD3 / RFU, BCAT1 / Fold change vs veh, BCAT1 / RFU, EDEM3 / Fold change vs veh, EDEM3 / RFU, TMEM33 / Fold change vs veh, TMEM33 / RFU, WDR75 / Fold change vs veh, WDR75 / RFU, AHCTF1 / Fold change vs veh, AHCTF1 / RFU, TFRC / Fold change vs veh, TFRC / RFU, ZDHHC17 / Fold change vs veh, ZDHHC17 / RFU, NOM1 / Fold change vs veh, NOM1 / RFU, ARL8B / Fold change vs veh, ARL8B / RFU, ZBTB11 / Fold change vs veh, ZBTB11 / RFU, TAMM41 / Fold change vs veh, TAMM41 / RFU, KIAA1704 /// LOC100996395 / Fold change vs veh, KIAA1704 /// LOC100996395 / RFU, ING1 / Fold change vs veh, ING1 / RFU, TRMT61B / Fold change vs veh, TRMT61B / RFU, FUBP3 / Fold change vs veh, FUBP3 / RFU, TP53 / Fold change vs veh, TP53 / RFU, TNKS2 / Fold change vs veh, TNKS2 / RFU, ZFP14 / Fold change vs veh, ZFP14 / RFU, ACTR2 / Fold change vs veh, ACTR2 / RFU, PPP3R1 / Fold change vs veh, PPP3R1 / RFU, PIK3R1 / Fold change vs veh, PIK3R1 / RFU, HNRNPA1 / Fold change vs veh, HNRNPA1 / RFU, RNF170 / Fold change vs veh, RNF170 / RFU, ZNF28 / Fold change vs veh, ZNF28 / RFU, RNGTT / Fold change vs veh, RNGTT / RFU, OGT / Fold change vs veh, OGT / RFU, BRD1 / Fold change vs veh, BRD1 / RFU, MARS / Fold change vs veh, MARS / RFU, ZNF655 / Fold change vs veh, ZNF655 / RFU, FAHD1 / Fold change vs veh, FAHD1 / RFU, BDP1 / Fold change vs veh, BDP1 / RFU, LRRCC1 / Fold change vs veh, LRRCC1 / RFU, ARID1A / Fold change vs veh, ARID1A / RFU, ZNF146 / Fold change vs veh, ZNF146 / RFU, ZNF330 / Fold change vs veh, ZNF330 / RFU, GPN3 / Fold change vs veh, GPN3 / RFU, C9orf123 / Fold change vs veh, C9orf123 / RFU, N4BP2L2 / Fold change vs veh, N4BP2L2 / RFU, ARFIP1 / Fold change vs veh, ARFIP1 / RFU, FAM179B / Fold change vs veh, FAM179B / RFU, BCL10 / Fold change vs veh, BCL10 / RFU, UHRF1BP1L / Fold change vs veh, UHRF1BP1L / RFU, BET1 / Fold change vs veh, BET1 / RFU, CNOT2 / Fold change vs veh, CNOT2 / RFU, ZNF268 / Fold change vs veh, ZNF268 / Fold change vs veh, ZNF507 / RFU, DGCR2 / Fold change vs veh, DGCR2 / RFU, WDSUB1 / Fold change vs veh, WDSUB1 / Fold change vs veh, HSP90B1 /// MIR3652 / RFU, ADSS / Fold change vs veh, ADSS / RFU, GK / Fold change vs veh, GK / RFU, ZNF148 / Fold change vs veh, ZNF148 / RFU, TAF9 / Fold change vs veh, TAF9 / RFU, SLC1A5 / Fold change vs veh, SLC1A5 / RFU, SLMO2 / Fold change vs veh, SLMO2 / RFU, ABCC4 / Fold change vs veh, ABCC4 / RFU, LOC101060439 /// RAP1B / Fold change vs veh, LOC101060439 /// RAP1B / RFU, RFX7 / Fold change vs veh, RFX7 / RFU, GTPBP10 / Fold change vs veh, GTPBP10 / RFU, CNEP1R1 / Fold change vs veh, CNEP1R1 / RFU, BIVM-ERCC5 /// ERCC5 / Fold change vs veh, BIVM-ERCC5 /// ERCC5 / RFU, ILF3 / Fold change vs veh, ILF3 / RFU 11762660_at / Fold change /veh 11762660_at / RFU VCAN (11757783_s_at) / Fold change /veh VCAN (11757783_s_at) / RFU DDX43 (11728927_at) / Fold change /veh DDX43 (11728927_at) / RFU KRT8 (11758188_x_at) / Fold change /veh KRT8 (11758188_x_at) / RFU NKD1 (11759106_at) / Fold change /veh NKD1 (11759106_at) / RFU SRD5A1 (11742802_a_at) / Fold change /veh SRD5A1 (11742802_a_at) / RFU TPSAB1 /// TPSB2 (11721975_s_at) / Fold change /veh TPSAB1 /// TPSB2 (11721975_s_at) / RFU GSTM3 (11746129_a_at) / Fold change /veh GSTM3 (11746129_a_at) / RFU IL23R (11737362_x_at) / Fold change /veh IL23R (11737362_x_at) / RFU TMEM51 (11727254_a_at) / Fold change /veh TMEM51 (11727254_a_at) / RFU PIWIL2 (11732686_x_at) / Fold change /veh PIWIL2 (11732686_x_at) / RFU ORM1 (11744905_x_at) / Fold change /veh ORM1 (11744905_x_at) / RFU CCDC152 (11743942_at) / Fold change /veh CCDC152 (11743942_at) / RFU ECM1 (11717891_a_at) / Fold change /veh ECM1 (11717891_a_at) / RFU IL23R (11748794_a_at) / Fold change /veh IL23R (11748794_a_at) / RFU TNFAIP8L3 (11732012_x_at) / Fold change /veh TNFAIP8L3 (11732012_x_at) / RFU MBOAT4 (11741988_at) / Fold change /veh MBOAT4 (11741988_at) / RFU 11764193_at / Fold change /veh 11764193_at / RFU TMEM53 (11763286_at) / Fold change /veh TMEM53 (11763286_at) / RFU MAGEB2 (11727129_at) / Fold change /veh MAGEB2 (11727129_at) / RFU TMEM200A (11744735_a_at) / Fold change /veh TMEM200A (11744735_a_at) / RFU CCDC152 (11751479_a_at) / Fold change /veh CCDC152 (11751479_a_at) / RFU FAM211A (11726209_a_at) / Fold change /veh FAM211A (11726209_a_at) / RFU RGS16 (11746705_a_at) / Fold change /veh RGS16 (11746705_a_at) / RFU VCAN (11755009_s_at) / Fold change /veh VCAN (11755009_s_at) / RFU RHOB (11743442_s_at) / Fold change /veh RHOB (11743442_s_at) / RFU RGS16 (11720943_a_at) / Fold change /veh RGS16 (11720943_a_at) / RFU RGS16 (11720944_at) / Fold change /veh RGS16 (11720944_at) / RFU, VPS4B / Fold change vs veh, VPS4B / RFU, CREB1 / Fold change vs veh, CREB1 / RFU, DNAJC13 / Fold change vs veh, DNAJC13 / RFU, GNAQ / Fold change vs veh, GNAQ / RFU, CDK5R1 / Fold change vs veh, CDK5R1 / RFU, ZRANB3 / Fold change vs veh, ZRANB3 / RFU, CUL4A / Fold change vs veh, CUL4A / RFU, CCNY / Fold change vs veh, CCNY / RFU, UFL1 / Fold change vs veh, UFL1 / RFU, COG3 / Fold change vs veh, COG3 / RFU, DIAPH2 / Fold change vs veh, DIAPH2 / RFU, SKA2 / Fold change vs veh, SKA2 / RFU, AFF3 / Fold change vs veh, AFF3 / RFU, LMF1 / Fold change vs veh, LMF1 / RFU, IPO11 / Fold change vs veh, IPO11 / RFU, DFFB / Fold change vs veh, DFFB / RFU, FOXP1 / Fold change vs veh, FOXP1 / RFU, CARD8 / Fold change vs veh, CARD8 / RFU, STRN3 / Fold change vs veh, STRN3 / RFU, ADK / Fold change vs veh, ADK / RFU, RASSF2 / Fold change vs veh, RASSF2 / RFU, WIPF1 / Fold change vs veh, WIPF1 / RFU, LARP1B / Fold change vs veh, LARP1B / RFU, RASA1 / Fold change vs veh, RASA1 / RFU, RB1 / Fold change vs veh, RB1 / RFU, PPFIA1 / Fold change vs veh, PPFIA1 / RFU, MAT2A / Fold change vs veh, MAT2A / RFU, CCT5 / Fold change vs veh, CCT5 / RFU, WDR92 / Fold change vs veh, WDR92 / RFU, CUX1 / Fold change vs veh, CUX1 / RFU, TTC7A / Fold change vs veh, TTC7A / RFU, TMEM135 / Fold change vs veh, TMEM135 / RFU, DEPTOR / Fold change vs veh, DEPTOR / RFU, CPM / Fold change vs veh, CPM / RFU, DNAJB6 / Fold change vs veh, DNAJB6 / RFU, CACNA2D3 / Fold change vs veh, CACNA2D3 / RFU, DTX4 / Fold change vs veh, DTX4 / RFU, TFCP2 / Fold change vs veh, TFCP2 / RFU, GMCL1 /// GMCL1P1 / Fold change vs veh, GMCL1 /// GMCL1P1 / RFU, AEBP2 / Fold change vs veh, AEBP2 / RFU, SNHG1 /// SNORD22 /// SNORD25 /// SNORD26 /// SNORD27 /// SNORD28 /// SNORD29 /// SNORD31 / Fold change vs veh, SNHG1 /// SNORD22 /// SNORD25 /// SNORD26 /// SNORD27 /// SNORD28 /// SNORD29 /// SNORD31 / Fold change (Aza/veh), C12orf56 (ProbeSet 11735607_a_at) / Fold change (ACY-1035/veh), C12orf56 (ProbeSet 11735607_a_at) / Fold change (Aza/veh), FGFR1OP (ProbeSet 11751329_s_at) / Fold change (ACY-1035/veh), FGFR1OP (ProbeSet 11751329_s_at) / Fold change (Aza/veh), VPS36 (ProbeSet 11739960_a_at) / Fold change (ACY-1035/veh), VPS36 (ProbeSet 11739960_a_at) / RFU SYPL1 (11715823_x_at) / Fold change /veh SYPL1 (11715823_x_at) / RFU IGFBP7 (11715501_s_at) / Fold change /veh IGFBP7 (11715501_s_at) / RFU REEP3 (11722064_at) / Fold change /veh REEP3 (11722064_at) / RFU IGLL1 (11728026_x_at) / Fold change /veh IGLL1 (11728026_x_at): dose or concentration left out as unconfirmed
Details: ProbeSet 11746640_a_at; LIST D

## Nc1ccc(-c2cccs2)cc1NC(=O)c1ccc2c(c1)cc(C1CC1)n2CCN1CCOCC1 [ACY-1035]
  RFU, RASSF2: 39.78 RFU
